Test results taken from patent US9765105B2, “Macrolide compound” (Pulike Biological Engineering, Inc., priority 2013, dated 2017).

Experiments:
Assay in all cases: in vitro susceptibility, MIC by mini broth dilution
Format in all cases: cell-based
[1] = system: Staphylococcus aureus CVCC26003; conditions: strain CVCC26003
Outline: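 MICs were determined by mini broth dilution under NCCLS standards in CAMHB, using revived S. aureus CVCC26003 subcultured 20 h at 35° C. Compounds were two-fold serially diluted in DMSO across 11 wells, with duplicate rows. Bacterial suspension was diluted 1:200 in medium before inoculation.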

[2] = system: Streptococcus equines CVCC556; conditions: strain CVCC556
Outline: (§1)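 MICs determined by mini broth dilution following NCCLS standards, using two-fold serial dilutions of compound in DMSO across 11 gradients, in duplicate rows. Strains were revived and subcultured at 35 °C for 20 h. Bacterial suspension was diluted 1:200 in liquid medium.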

Haemophilus parasuis = system: Haemophilus parasuis
Outline: as §1

[3] = system: Pasteurella multocida CVCC399; conditions: strain CVCC399
Outline: as §1

[4] = system: Actinobacillus pleuropneumoniae CVCC262; conditions: strain CVCC262
Outline: as §1

| Structure (SMILES) | MIC values, Staphylococcus aureus CVCC26003 [1] [ug/mi] | MIC values, Streptococcus equines CVCC556 [2] [ug/mi] | MIC values, Haemophilus parasuis (Haemophilus parasuis) [ug/mi] | MIC values, Pasteurella multocida CVCC399 [3] [ug/mi] | MIC values, Actinobacillus pleuropneumoniae CVCC262 [4] |
| --- | --- | --- | --- | --- | --- |
| CC[C@H]1OC(=O)[C@H](C)[C@@H](O[C@H]2C[C@@](C)(OC)[C@](O)(CNc3ccc4ncccc4c3)[C@H](C)O2)[C@H](C)[C@@H](O[C@@H]2O[C@H](C)C[C@H](N(C)C)[C@H]2O)[C@](C)(O)C[C@@H](C)NC[C@H](C)[C@@H](O)[C@]1(C)O [syzx-99, (2R,3S,4R,5S,8R,10R,11R,12S,13S,14R)-13-[(2,6-dideoxy-3-C-methyl-3-O-methyl-4-C-[(quinolin-6-yl-amino)-methyl]-α-L-ribopyranosyl)oxy]-2-ethyl-3,4,10-trihydroxy-3,5,8,10,12,14-hexamethyl-11-[[3,4,6-trideoxy-3-(dimethylamino)-β-D-xylo-hexopyranosy]oxy]-1-oxo-7-azacyclopentadecan-15-one] | 4 | 2 | 4 | 8 | 128 ug/mi |
| CC[C@H]1OC(=O)[C@H](C)[C@@H](O[C@H]2C[C@@](C)(OC)[C@](O)(CNC(C)C(C)(C)C)[C@H](C)O2)[C@H](C)[C@@H](O[C@@H]2O[C@H](C)C[C@H](N(C)C)[C@H]2O)[C@](C)(O)C[C@@H](C)NC[C@H](C)[C@@H](O)[C@]1(C)O (stereo partly drawn) [syzx-100, (2R,3S,4R,5S,8R,10R,11R,12S,13S,14R)-13-[(2,6-dideoxy-3-C-methyl-3-O-methyl-4-C-[(1,2,2-trimethyl-propylamino)-methyl]-α-L-ribopyranosyl)oxy]-2-ethyl-3,4,10-trihydroxy-3,5,8,10,12,14-hexamethyl-11-[[3,4,6-trideoxy-3-(dimethylamino)-β-D-xylo-hexopyranosy]oxy]-1-oxa-7-azacyclopentadecan-15-one] | 1 | 2 | 2 | 0.5 | 1 ug/mi |
| CCCCNC[C@]1(O)[C@H](C)O[C@@H](O[C@H]2[C@H](C)[C@@H](O[C@@H]3O[C@H](C)C[C@H](N(C)C)[C@H]3O)[C@](C)(O)C[C@@H](C)N(CCC)C[C@H](C)[C@@H](O)[C@](C)(O)[C@@H](CC)OC(=O)[C@@H]2C)C[C@@]1(C)OC [syzx-102] | 0.25 | 0.25 | 0.25 | 0.5 | 0.25 ug/mi |
| CCCN1C[C@H](C)[C@@H](O)[C@](C)(O)[C@@H](CC)OC(=O)[C@H](C)[C@@H](O[C@H]2C[C@@](C)(OC)[C@](O)(CN(CC)CC)[C@H](C)O2)[C@H](C)[C@@H](O[C@@H]2O[C@H](C)C[C@H](N(C)C)[C@H]2O)[C@](C)(O)C[C@H]1C [syzx-103] | 0.25 | 0.25 | 0.25 | 1 | 0,25 ug/mi |
| CCCN1C[C@H](C)[C@@H](O)[C@](C)(O)[C@@H](CC)OC(=O)[C@H](C)[C@@H](O[C@H]2C[C@@](C)(OC)[C@](O)(CNc3ccccc3)[C@H](C)O2)[C@H](C)[C@@H](O[C@@H]2O[C@H](C)C[C@H](N(C)C)[C@H]2O)[C@](C)(O)C[C@H]1C [syzx-104] | 0.25 | 0.25 | 0.25 | 1 | 0.25 ug/mi |
| CCCN1C[C@H](C)[C@@H](O)[C@](C)(O)[C@@H](CC)OC(=O)[C@H](C)[C@@H](O[C@H]2C[C@@](C)(OC)[C@](O)(CNCC3(C)CC(N)CC(C)(C)C3)[C@H](C)O2)[C@H](C)[C@@H](O[C@@H]2O[C@H](C)C[C@H](N(C)C)[C@H]2O)[C@](C)(O)C[C@H]1C (some centres unmarked) [syzx-106] | 2 | 0.25 | 0.5 | 2 | 0.5 ug/mi |
| CCCN1C[C@H](C)[C@@H](O)[C@](C)(O)[C@@H](CC)OC(=O)[C@H](C)[C@@H](O[C@H]2C[C@@](C)(OC)[C@](O)(CNCc3ccc(F)cc3)[C@H](C)O2)[C@H](C)[C@@H](O[C@@H]2O[C@H](C)C[C@H](N(C)C)[C@H]2O)[C@](C)(O)C[C@H]1C [syzx-108] | 0.25 | 0.25 | 0.25 | 1 | 0.25 ug/mi |
| CCCN1CC(C)C(O)C(C)(O)C(CC)OC(=O)C(C)C(OC2CC(C)(OC)C(O)(Cn3ccnn3)C(C)O2)C(C)C(OC2OC(C)CC(N(C)C)C2O)C(C)(O)CC1C (centres unmarked) [syzx-109] | 0.25 | 0.25 | 0.25 | 1 | 0.25 ug/mi |
| CCCN1C[C@H](C)[C@@H](O)[C@](C)(O)[C@@H](CC)OC(=O)[C@H](C)[C@@H](O[C@H]2C[C@@](C)(OC)[C@](O)(CNCC)[C@H](C)O2)[C@H](C)[C@@H](O[C@@H]2O[C@H](C)C[C@H](N(C)C)[C@H]2O)[C@](C)(O)C[C@H]1C [syzx-110] | 0.25 | 0.25 | 0.25 | 0.5 | 0.25 ug/mi |
| CCCN1C[C@H](C)[C@@H](O)[C@](C)(O)[C@@H](CC)OC(=O)[C@H](C)[C@@H](O[C@H]2C[C@@](C)(OC)[C@](O)(CNC(C)C)[C@H](C)O2)[C@H](C)[C@@H](O[C@@H]2O[C@H](C)C[C@H](N(C)C)[C@H]2O)[C@](C)(O)C[C@H]1C [syzx-111] | 0.25 | 0.25 | 0.25 | 0.5 | 0.25 ug/mi |
| CCCN1C[C@H](C)[C@@H](O)[C@](C)(O)[C@@H](CC)OC(=O)[C@H](C)[C@@H](O[C@H]2C[C@@](C)(OC)[C@](O)(CNCC(C)C)[C@H](C)O2)[C@H](C)[C@@H](O[C@@H]2O[C@H](C)C[C@H](N(C)C)[C@H]2O)[C@](C)(O)C[C@H]1C [syzx-112] | 0.25 | 0.25 | 0.25 | 0.5 | 0.25 ug/mi |
| CCCN1C[C@H](C)[C@@H](O)[C@](C)(O)[C@@H](CC)OC(=O)[C@H](C)[C@@H](O[C@H]2C[C@@](C)(OC)[C@](O)(CNc3cccc(Cl)c3)[C@H](C)O2)[C@H](C)[C@@H](O[C@@H]2O[C@H](C)C[C@H](N(C)C)[C@H]2O)[C@](C)(O)C[C@H]1C [syzx-113] | 0.25 | 0.25 | 0.25 | 1 | 0.25 ug/mi |
| CCCCCCNC[C@]1(O)[C@H](C)O[C@@H](O[C@H]2[C@H](C)[C@@H](O[C@@H]3O[C@H](C)C[C@H](N(C)C)[C@H]3O)[C@](C)(O)C[C@@H](C)N(CCC)C[C@H](C)[C@@H](O)[C@](C)(O)[C@@H](CC)OC(=O)[C@@H]2C)C[C@@]1(C)OC [syzx-115] | 0.25 | 0.25 | 0.25 | 0.5 | 0.25 ug/mi |
| CCCN1C[C@H](C)[C@@H](O)[C@](C)(O)[C@@H](CC)OC(=O)[C@H](C)[C@@H](O[C@H]2C[C@@](C)(OC)[C@](O)(CNCc3ccc(C(F)(F)F)cc3)[C@H](C)O2)[C@H](C)[C@@H](O[C@@H]2O[C@H](C)C[C@H](N(C)C)[C@H]2O)[C@](C)(O)C[C@H]1C [syzx-116] | 0.25 | 0.25 | 0.25 | 1 | 0.25 ug/mi |
| CCCN1C[C@H](C)[C@@H](O)[C@](C)(O)[C@@H](CC)OC(=O)[C@H](C)[C@@H](O[C@H]2C[C@@](C)(OC)[C@](O)(CNCC3CC3)[C@H](C)O2)[C@H](C)[C@@H](O[C@@H]2O[C@H](C)C[C@H](N(C)C)[C@H]2O)[C@](C)(O)C[C@H]1C [syzx-117] | 0.25 | 0.25 | 0.25 | 0.5 | 0.25 ug/mi |
| CCCN1C[C@H](C)[C@@H](O)[C@](C)(O)[C@@H](CC)OC(=O)[C@H](C)[C@@H](O[C@H]2C[C@@](C)(OC)[C@](O)(CNCc3ccc(OC)cc3)[C@H](C)O2)[C@H](C)[C@@H](O[C@@H]2O[C@H](C)C[C@H](N(C)C)[C@H]2O)[C@](C)(O)C[C@H]1C [syzx-118] | 0.25 | 0.25 | 0.25 | 0.25 | 0.25 ug/mi |
